Reference: patent US5686422A, “Synthetic inhibitors of mammalian collagenase” (Research Corporation Technologies, Inc., priority 1995, dated 1997)
Read-outs that look alike come from different tables or passages of the source.

Columns and labels:
pig synovial collagenase = target: T1, pig synovial collagenase (Sus scrofa, UniProt P21692); assay: Collagenase assay: degradation of type I collagen (SDS-PAGE/densitometry or spectrophotometric); assay type: biochemical
T1 construct: pig synovial collagenase (0.04 μg protein); from tissue; host or cells: pig synovium (only from the enzyme's name; preparation not described)
T1 sequence (P21692 100-469): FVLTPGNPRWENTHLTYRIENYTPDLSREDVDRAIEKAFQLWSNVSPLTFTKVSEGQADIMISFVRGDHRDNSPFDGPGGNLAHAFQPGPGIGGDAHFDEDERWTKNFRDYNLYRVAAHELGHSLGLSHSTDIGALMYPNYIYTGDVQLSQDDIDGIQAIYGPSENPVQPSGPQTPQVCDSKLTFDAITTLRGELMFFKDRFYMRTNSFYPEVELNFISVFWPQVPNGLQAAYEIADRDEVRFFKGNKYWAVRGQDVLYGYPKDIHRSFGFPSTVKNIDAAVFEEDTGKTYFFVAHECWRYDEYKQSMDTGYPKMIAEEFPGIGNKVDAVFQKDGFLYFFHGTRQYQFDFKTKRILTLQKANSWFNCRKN
Protocol: Collagenase activity was determined after electrophoretic separation of degraded from undegraded type I collagen by polyacrylamide gel electrophoresis and densitometry as follows.
Acid-soluble calf skin collagen (0.25 mg/ml, approximately […]) was incubated at 35° C. for 1 hr with pig synovial collagenase (0.04 μg protein) in 0.05M tris-HCL, 0.2M NaCl, 0.25M glucose, 5 mM CaCl2, 10% dimethyl sulfoxide, pH 7.6 in a total reaction volume of 20 μL. Inhibitors were dissolved in dimethyl sulfoxide and the sulfhydryl titer determined in stock solutions immediately prior to use by the colorimetric procedure of Ellman [Ellman, G. L., Arch. Biochem. Biophys. 82: 70-77 (1959)]. At the end of the reaction period, the reactions were stopped by placing on ice and 20 μL sample dilution buffer was added [Laemmli, U. K., Nature (London) 227: 680-685 (1970)]. The samples were then placed in a boiling water bath for 2-5 minutes after which collagen degradation products were separated from undegraded collagen by sodium dodecyl sulfate-polyacrylamide electrophoresis according to the procedure of Laemmli [1970]. The electrophoretograms were fixed in isopropanol/acetic acid/water (100:40:300) and stained with 1% Coomassie Blue R-250. The percentage of collagen alpha chains degraded was estimated by scanning densitometry and integration of peak areas [Welgus et al., J. Biol. Chem. 256: 9511-9515 (1981)].
A spectrophotometric method was also utilized in some cases to determine collagenase activity [Lindy, S. et al., European J. Biochem. 156: 1-4 (1986)]. The conditions were the same as given above except that the reaction volume was 200 μL, the temperature was 37° C. and the enzyme concentration was 1.2 μg protein/ml. Stock solutions of inhibitors were prepared in 1 mM acetic acid in ethanol and the sulfhydryl titer determined colorimetrically by the method of Ellman […]. The reaction progress was monitored for 6-10 minutes by following the increase in absorbance at 227 nm that accompanies denaturation of the collagen fragments. Initial rates of collagen degradation were determined from the linear portion of the progress curves.

[1] = target: T2, Collagenase, purified from sodium hydroxide burned rabbit corneal tissue (Oryctolagus cuniculus, UniProt P13943); assay: Qualitative SDS-PAGE assay of collagen degradation by corneal collagenase; assay type: biochemical
T2 sequence (P13943 99-468): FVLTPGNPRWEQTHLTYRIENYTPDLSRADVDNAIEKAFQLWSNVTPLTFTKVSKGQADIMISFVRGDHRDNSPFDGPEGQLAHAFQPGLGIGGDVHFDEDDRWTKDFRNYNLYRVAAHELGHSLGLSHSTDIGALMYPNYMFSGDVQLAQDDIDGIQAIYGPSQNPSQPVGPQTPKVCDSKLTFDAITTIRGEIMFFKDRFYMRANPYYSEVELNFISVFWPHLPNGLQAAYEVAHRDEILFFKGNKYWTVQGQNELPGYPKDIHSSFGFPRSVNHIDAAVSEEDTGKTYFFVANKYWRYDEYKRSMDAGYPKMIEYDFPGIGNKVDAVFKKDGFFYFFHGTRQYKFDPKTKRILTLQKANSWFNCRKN
Protocol: Collagenase, purified from sodium hydroxide burned rabbit corneal tissue, was placed in a reaction mixture containing Type I collagen (0.4 mg/ml), 0.005M Tris-HCl, 0.2M NaCl, 0.25M glucose, pH 7.7. Reactions were initiated by adding the enzyme to the reaction mixture; inhibitory potency was estimated by running separate reaction mixtures in which the peptide HSCH2 CH[CH2 CH(CH3)2 ]--CO-Phe-Ala-NH2, made in accordance with Example 2, was added in varying concentrations to the mixture and incubated for 3 hours at 30° C. Other compounds were assayed for inhibitory potency in a similar manner. Reaction mixtures were quenched by placing them on ice and then adding one volume of sample dilution buffer followed by boiling the mixtures in a water bath for 5 minutes. Collagen degradation products were resolved from undegraded collagen by sodium dodecylsulfate-polyacylamide gel electrophoresis (SDS-PAGE) followed by staining with Coomassie Blue R-250. The SDS-PAGE assay was used to qualitatively evaluate the inhibitory capacity of the compounds tested. An estimate of inhibitory potency was then noted by visualizing the concentration range which produced 50% inhibition of collagen degradation.
The results of this qualitative assay are expressed as an IC50 range (Table II). For example, doxycyline's IC50 is 0.2 to 1.0 mM. That is, a doxycycline concentration of 0.2 to 1.0 mM is required to obtain a 50% inhibition of collagen degradation. These estimated ranges were then used to predict the inhibitor concentrations tested in the quantitative analysis detailed below.

PA elastase = target: T3, PA elastase (Pseudomonas aeruginosa, UniProt P14756); assay: biochemical
T3 construct: made in house; host or cells: native secreted enzyme from a virulent Pseudomonas aeruginosa strain grown on tryptone glucose extract agar
T3 sequence (P14756 198-498): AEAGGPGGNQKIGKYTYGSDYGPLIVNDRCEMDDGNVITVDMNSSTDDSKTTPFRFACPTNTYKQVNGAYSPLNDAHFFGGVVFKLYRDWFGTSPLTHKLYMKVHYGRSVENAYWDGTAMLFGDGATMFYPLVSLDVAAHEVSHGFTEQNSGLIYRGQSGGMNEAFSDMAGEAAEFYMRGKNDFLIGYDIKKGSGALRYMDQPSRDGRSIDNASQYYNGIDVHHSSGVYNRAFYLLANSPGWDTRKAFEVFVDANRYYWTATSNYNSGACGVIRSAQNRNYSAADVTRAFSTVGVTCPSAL
Protocol: Pseudomonas aeruginosa proteases were obtained by overnight incubation of virulent strain of Pseudomonas aeruginosa (PA) on tryptone glucose extract agar.
The PA elastase was tested in accordance with the procedures analogous to those conducted on purified collagenase in Example 5.
Example 7 was repeated using three corneal ulceration treatments of the prior art: Tetracycline, minocycline and doxycycline.

[2] = target: T2, Collagenase, purified from sodium hydroxide burned rabbit corneal tissue; assay: Quantitative fluorometric assay with fluorogenic Dnp-peptide substrate; assay type: biochemical; details: Dnp-substrate 20 uM, 37° C. for 2 to 3 minutes
Protocol: Quantitative determination of collagenase activity was carried out with a fluorogenic peptide substrate, Dnp-Pro-Leu-Gly-Leu-Trp-Ala-D-Arg-NH2,which collagenase cleaves to produce Dnp-Pro-Leu-Gly and Leu-Trp-Ala-D-Arg-NH2. The rate of production of the tetrapeptide was monitored with an AMINCO-BOWMAN® spectrofluorometer (excitation wavelength of 280 nm and emission wavelength of 346 nm). This test was repeated using high performance liquid chromatography (HPLC) to separate and detect the two cleaved collagenase products.
Reaction mixtures for both the fluorometric and HPLC assays contained 0.05M Tris-HCl, 0.2M NaCl, 10 mM CaCl2 and Dnp-substrate 20 uM, pH 7.7. The peptide of Example 2 was added to the assay mixtures at varying concentrations. The incubation conditions differed between the two assays; the fluorometric reaction mixtures were incubated at 37° C. for 2 to 3 minutes whereas the HPLC reaction mixtures were incubated at 37° C. for 3 hours. This was necessary because the HPLC assay was not as sensitive in detecting the substrate cleavage products as the fluorometric assay. IC50 values were interpolated from plots of log[Ao /Ai)-1[ vs. log[Inhibitor], where Ao is the activity observed in the absence of inhibitor and Ai is the activity observed in the presence of inhibitor at concentration i.

[3] = mixture containing approximately equal amounts of the two diastereomers, read-out: IC50 (uM), diastereomers not resolved
[4] = SDS-PAGE, visual estimate, Type I collagen 0.4 mg/ml, 3 hours at 30° C.
[5] = fast-eluting diastereomer (C18 reversed phase), approximate concentration giving 50% inhibition of collagen degradation, read-out: IC50 (uM) Fast Isomer
[6] = slow-eluting diastereomer (C18 reversed phase), approximate concentration giving 50% inhibition of collagen degradation, read-out: IC50 (uM) Slow Isomer

Structure (SMILES)	IC50 (pig synovial collagenase; [3]) [µM]	Estimated IC50 Range [1, 4] [µM]	IC50 (PA elastase) [µM]	also measured
CCOC(=O)[C@H](C)NC(=O)[C@H](CCCCNC(=O)OC(C)(C)C)NC(=O)C(CS)CC(C)C (some centres unmarked)	4	–	–	–
CC(=O)N[C@@H](CS)C(=O)O [Acetylcysteine, acetylcysteine]	–	10000 to 30000	–	–
CC(C)CC(CS)C(=O)N[C@@H](Cc1ccccc1)C(=O)N[C@@H](C)C(N)=O (stereo partly drawn) [Compound 3, 2-[(R,S)-Mercaptomethyl]-4-methylpentanoyl-L-phenylalanyl-L-alanine amide]	–	–	0.3	IC50 (pig synovial collagenase; [5]): 0.3 µM; IC50 (pig synovial collagenase; [6]): 0.04 µM
CC(C)CC(CS)C(=O)N[C@@H](Cc1c[nH]c2ccccc12)C(=O)N[C@@H](C)C(N)=O (some centres unmarked) [Compound 4, HSCH2 CH[CH2 CH(CH3)2]COTrpAlaNH2]	0.05	–	–	–
CC(C)CC(CS)C(=O)N[C@@H](Cc1ccccc1)C(=O)N[C@@H](CC(C)C)C(N)=O (stereo partly drawn) [Compound 5, 2-[(R,S)-Mercaptomethyl]-4-methylpentanoyl-L-phenylalanyl-L-leucine amide]	–	–	–	IC50 (pig synovial collagenase; [5]): 10 µM; IC50 (pig synovial collagenase; [6]): 4 µM
CC(C)CC(CS)C(=O)N[C@@H](Cc1ccccc1)C(=O)N[C@@H](Cc1ccccc1)C(N)=O (some centres unmarked) [Compound 6, HSCH2 CH[CH2 CH(CH3)2]COPhePheNH2]	2	–	–	–
CC(C)CC(CS)C(=O)N[C@@H](Cc1ccc2ccccc2c1)C(=O)N[C@@H](C)C(N)=O (some centres unmarked) [Compound 7, HSCH2 CH[CH2 CH(CH3)2]CCNalAlaNH2]	0.03	–	–	–
N[C@@H](CS)C(=O)O [Cysteine, cysteine]	–	3000 to 10000	–	–
C[C@H]1c2cccc(O)c2C(=O)C2=C(O)[C@]3(O)C(=O)C(C(N)=O)=C(O)[C@@H](N(C)C)[C@@H]3[C@@H](O)[C@@H]21 [Doxycycline, doxycycline]	–	200 to 1000	110	–
CN(C)c1ccc(O)c2c1C[C@H]1C[C@H]3[C@H](N(C)C)C(O)=C(C(N)=O)C(=O)[C@@]3(O)C(O)=C1C2=O [Minocycline, minocycline]	–	–	260	–
O=C1O[C@H]([C@@H](O)CO)C([O-])=C1O.[Na+] [Sodium Ascorbate]	–	–	–	Estimated IC50 Range (mM) [1, 4]: No Inhibition
O=C([O-])CC(O)(CC(=O)[O-])C(=O)[O-].[Na+].[Na+].[Na+] [Sodium Citrate, sodium citrate]	–	10000 to 30000	–	IC50 [2]: 45000 µM; reversal of inhibition by excess Ca++ ([1]; SDS-PAGE assay, footnote to Table II): Reversed by addition of excess Ca++
CN(C)[C@@H]1C(O)=C(C(N)=O)C(=O)[C@@]2(O)C(O)=C3C(=O)c4c(O)cccc4[C@@](C)(O)[C@H]3C[C@@H]12 [Tetracycline, tetracycline]	–	1000 to 2000	660	–
